Results: US20060013804A1, “Modulation of stem cell differentiation by modulation of caspase-3 activity” (Ottawa Health Research Institute, priority 2002, published 2006)

Columns and labels:
Assay type in all cases: cell-based, mouse
C2C12 myoblasts = assay: C2C12 myoblast differentiation in low serum media with caspase inhibitors (MF20 staining, immunoblot of myogenic markers); settings: 20 μM inhibitor; for myotube formation: C2C12, low serum media, MF20 staining, up to 4 days; for myotube formation / myoblast fusion (mononucleated / fused cells): vs DMSO; for myoblast fusion (mononucleated / fused cells) / expression of MEF2C / accumulation of myogenin: C2C12, low serum; for myoblast fusion (mononucleated / fused cells): 4 days; for expression of MEF2C / accumulation of myogenin: Western blot; for expression of MEF2C: vs control; for accumulation of myogenin: vs control myoblasts
Method: Myoblast culture. C2C12 cell (mouse skeletal muscle myoblast) cultures were grown and maintained in DMEM containing 10% FBS with 50 units/ml penicillin and 50 μg/ml streptomycin (Gibco). Differentiation was induced by incubating cultures in DMEM containing only a low serum concentration (2% horse serum). Caspase activity was measured using a Caspase-3 and Caspase-8 Fluorometric Assay Kit (Pharmingen). […] Control cells were treated with an equivalent amount of vehicle (DMSO). Primary myoblast cells were derived from skeletal muscles of the hind- and fore-limbs from 1-2 day old C57BL/6 wild-type, caspase-3 heterozygous and caspase-3 null mice (Frasch, S. C., et al., (1998) J. Biol. Chem. 273, 8389-8397; Kuida, K., et al., (1996) Nature 384, 368-372) (n=5 for each genotype) as described (Cregan, S. P. et al., (1999) J. Neuro. 19, 7860-7869.). To induce differentiation, primary myoblast cultures were incubated in DMEM containing 5% horse serum.
(§1) Protein isolation, immunoblot analyses and immunocytochemistry. Cells from C2C12 and primary myoblast cultures were washed with ice-cold PBS and lysed on ice for 45 minutes in modified-RIPA buffer containing 20 mM NaF, 5 mM Na3VO4 and 10 μg/ml each of aprotinin, leupeptin, pepstatin and PMSF. Total protein was measured using the BCA protein assay (Pierce). Immunoblot analyses were performed as described (Creasy, C. L., & Chernoff, J. (1995) J. Biol. Chem. 270, 21695-21700) using antibodies for MST1, MKK6, p38γ, and p38α (Upstate), p38 and MEF2C (Cell Signaling Technologies), myogenin F5D and myosin heavy chain MF20 mAb (Developmental Hybridoma Bank), and active caspase-3 (Biovision).
C2C12 myoblasts were fixed and stained with anti-MF20 as previously described (Cregan, et al., (1999) J. Neuro. 19, 7860-7869). Primary myoblast cultures were fixed in 4% paraformaldehyde, rinsed three times in PBS containing 0.01% Triton X-100 and stained as above. For both C2C12 and primary myoblast cultures, nuclei were detected by incubating cells for 10 min with 4,6-diamidino-2-phenylindole diluted 1:10000 in PBS.
Cells were fixed after 0, 2 and 4 days of differentiation and stained with the myosin heavy chain antibody MF20. […] In contrast, differentiation was more evident in cells that were incubated with caspase-8 inhibitor, z-LETD.fmk (FIG. 2B bottom panel, C).

MST1 = MST1 immunoblot and immunoprecipitation/Histone H1 kinase assay from C2C12 lysates; settings: for full-length MST1 protein level: C2C12, initial 24 h of low serum, Western blot
Method: as §1
Co-immunoprecipitation and kinase analyses. Immunoprecipitation was performed using 150-200 μg of total protein, incubated in modified-RIPA buffer at 4° C. for 16 h containing the respective antibody. Samples were mixed for 1 h with 25 μl of a 50% Protein G (Pharmacia). For co-immunoprecipitation, immunoprecipitates were washed in modified-RIPA buffer, boiled in 1× Lamelli buffer, separated by SDS-PAGE and Western blotted for immunoblot analyses. Immunoprecipitates used for kinase analyses were washed in modified-RIPA buffer and incubated in kinase buffer containing 20 mM MOPS (pH 7.2), 25 mM β-glycerophosphate, 5 mM EGTA, 1 mM Na3VO4 and 1 mM DTT supplemented with [γ-^32P]ATP and either recombinant MBP or recombinant Histone H1 (Upstate) as the target substrate. Samples were incubated for 30 min at 37° C. and then boiled in 1× Lamelli buffer. Following SDS-PAGE, gels were dried and phospho-incorporation was analyzed by autoradiography.
One kinase that was altered in activity co-migrated with a predicted pI (5.2) and molecular weight (36 kDa) consistent with Mammalian Sterile Twenty-like kinase (MST1). MST1 is a known caspase-3 activated kinase homologous to the yeast family of serine/threonine Ste20 kinases (Lechner, C., et al., (1996) Proc. Natl. Acad. Sci. USA 93, 43554359; Megeney, L. A., et al., (1996) Genes Dev 10, 1173-1183). […]

p38α = assay: Immunoprecipitation/kinase assay of p38α from neurospheres; settings: differentiation media under caspase 3 inhibition
Method: Immunoprecipitation/Kinase activity assays: Immunoprecipitation/kinase analyses were performed as previously described (Fernando, P., et al., (2002) Proc Natl Acad Sci USA 99, 11025-11030). Cellular lysates from neurospheres were generated as described above. Antibodies against apoptotic signal-regulating kinase 1 (ASK1) (Upstate, USA), p21 activated kinase 1 (PAK1) (Cell Signaling Technologies, USA), and p38 MAPK (Santa Cruz, USA) were used to immunoprecipitate respective proteins. Samples were mixed with Protein G-sepharose beads for 1 h, washed and then mixed with kinase assay buffer containing myelin basic protein (MBP) and γ-32P[ATP]. Samples were reacted at 30° C. for 30 min and separated using SDS-PAGE. In some instances, samples were transferred to PVDF membrane following electrophoresis. To quantify kinase activities, MBP acrylamide bands were excised and solubilized in scintillation fluid prior to 32P-liquid scintillation analyses. In all cases, an activated recombinant mitogen activated protein kinase activated protein-2 (MAPKAP kinase-2) (Upstate, USA) was used as an internal control for liquid scintillation analyses.
ASK1 activity was reduced when cells were treated with differentiation media containing z-DEVD (DEVD condition) compared to differentiation media alone (DMSO condition) (FIG. 19c,d). Both PAK1 and ASK1 have been linked to the downstream activity of p38 MAPK. […]

SMILES: COC(=O)CC[C@H](NC(=O)[C@H](CC(=O)OC)NC(=O)OCc1ccccc1)C(=O)N[C@H](C(=O)N[C@@H](CC(=O)OC)C(=O)CF)C(C)C [z-DEVD.fmk]
- myotube formation (C2C12 myoblasts): impaired formation of myotubes
- myotube formation (C2C12 myoblasts; listed as Z-DEVD.fmk): drastically attenuated
- myoblast fusion (mononucleated / fused cells) (C2C12 myoblasts): remained mononucleated and unfused after 4 days
- myoblast fusion (mononucleated / fused cells) (C2C12 myoblasts; listed as Z-DEVD.fmk): lack fusion capacity
- expression of MEF2C (C2C12 myoblasts): virtually absent
- accumulation of myogenin (C2C12 myoblasts): delayed and attenuated accumulation
- accumulation of myogenin (C2C12 myoblasts; listed as Z-DEVD.fmk): delayed and is in lower abundance
- expression of MEF2C (C2C12 myoblasts; listed as Z-DEVD.fmk): low levels of MEF2C relative to control cells
- full-length MST1 protein level (MST1): remained relatively unchanged
- full-length MST1 protein level (MST1; listed as caspase-3 inhibitor): does not change
- MST1 kinase activity (Histone H1 phosphorylation) (MST1; MST1 immunoprecipitated from C2C12 lysates, 12 h low serum media): no phosphorylation above basal levels was detectable
- p38α kinase activity (p38α): very low levels of p38α kinase activity
